According to patent US20240174674A1, “NITROGEN-CONTAINING POLYCYCLIC FUSED RING COMPOUND, PHARMACEUTICAL COMPOSITION THEREOF, PREPARATION METHOD THEREFOR, AND USE THEREOF” (APPLIED PHARMACEUTICAL SCIENCE, INC., priority 2021, published 2024):
Where two headings read alike, the source gives them in different places.

Biological target: RET G810R (Homo sapiens (Human), UniProt P07949, G810R)
Test: HTRF KinEASE-TK kinase activity test, RET G810R
Details: for inhibitory activity against RET G810R relative to that of selpercatinib (LOXO-292): fold versus selpercatinib (LOXO-292)
[1] = read-out: RET G810R IC50, HTRF kinase assay

RET G810R, sequence (P07949 29-1114 G810R): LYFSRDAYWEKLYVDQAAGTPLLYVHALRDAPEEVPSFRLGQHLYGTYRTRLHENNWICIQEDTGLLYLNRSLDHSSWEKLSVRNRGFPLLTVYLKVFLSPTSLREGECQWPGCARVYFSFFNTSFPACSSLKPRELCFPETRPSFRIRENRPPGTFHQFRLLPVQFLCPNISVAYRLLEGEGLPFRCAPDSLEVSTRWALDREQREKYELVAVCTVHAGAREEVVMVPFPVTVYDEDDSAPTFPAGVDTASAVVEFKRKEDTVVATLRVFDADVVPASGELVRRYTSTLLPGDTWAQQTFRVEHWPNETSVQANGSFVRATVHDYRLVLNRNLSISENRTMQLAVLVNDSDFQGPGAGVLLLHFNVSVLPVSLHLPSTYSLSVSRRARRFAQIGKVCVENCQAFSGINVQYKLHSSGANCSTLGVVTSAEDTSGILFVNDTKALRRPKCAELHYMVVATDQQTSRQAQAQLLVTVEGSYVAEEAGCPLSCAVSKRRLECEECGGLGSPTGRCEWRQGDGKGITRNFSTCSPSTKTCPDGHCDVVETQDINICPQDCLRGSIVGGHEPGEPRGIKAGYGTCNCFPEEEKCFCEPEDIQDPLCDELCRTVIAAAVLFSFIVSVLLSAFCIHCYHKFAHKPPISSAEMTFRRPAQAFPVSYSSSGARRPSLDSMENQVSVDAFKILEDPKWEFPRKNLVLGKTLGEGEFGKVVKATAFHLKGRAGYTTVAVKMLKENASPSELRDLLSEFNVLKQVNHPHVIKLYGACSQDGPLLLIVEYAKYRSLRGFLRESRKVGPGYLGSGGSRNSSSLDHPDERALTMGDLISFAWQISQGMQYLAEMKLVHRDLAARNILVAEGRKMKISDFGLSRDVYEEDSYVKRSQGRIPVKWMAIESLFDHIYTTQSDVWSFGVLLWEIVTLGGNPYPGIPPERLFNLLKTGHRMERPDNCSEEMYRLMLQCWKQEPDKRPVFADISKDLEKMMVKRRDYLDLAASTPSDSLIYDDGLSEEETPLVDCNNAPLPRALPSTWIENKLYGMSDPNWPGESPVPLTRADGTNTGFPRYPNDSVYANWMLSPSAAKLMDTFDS

Molecule `CCOc1cc(-c2ccc(N3CC[C@H](NC(=O)c4c(F)cccc4F)[C@@H](O)C3)nc2)c2c3cn[nH]c3nn2c1` [Compound 294, N-((3S,4S)-1-(5-(6-ethoxy-1H-pyrazolo[3′,4′:3,4]pyrazolo[1,5-α]pyridin-4-yl)pyridin-2-yl)-3-hydroxypiperidin-4-yl)-2,6-difluorobenzamide] has an IC50 [1] of 4.1 nM.

With `CCOc1cc(-c2ccc(N3CC[C@H](NC(=O)C4(F)CC4)[C@H](O)C3)nc2)c2c3cn[nH]c3nn2c1` [Compound 282, N-((3R,4S)-1-(5-(6-ethoxy-1H-pyrazolo[3′,4′:3,4]pyrazolo[1,5-α]pyridin-4-yl)pyridin-2-yl)-3-hydroxypiperidin-4-yl)-1-fluorocyclopropane-1-carboxamide] the “inhibitory activity against RET G810R relative to that of selpercatinib (LOXO-292)” value was no less than 10 times and the IC50 [1] was 3.5 nM.

For `CCOc1cc(-c2ccc(N3CCN(Cc4ccc(OC)nc4)C(CO)C3)nc2)c2c3cn[nH]c3nn2c1` (stereo not drawn) [Compound 249, (4-(5-(6-ethoxy-1H-pyrazolo[3′,4′:3,4]pyrazolo[1,5-α]pyridin-4-yl)pyridin-2-yl)-1-((6-methoxypyridin-3-yl)methylene)piperazin-2-yl)methanol], the IC50 [1] was 13.5 nM.

For `CCOc1cc(-c2cnc(N3CCC(C)(NC(=O)c4cc(F)ccc4Cl)CC3)cn2)c2c3cn[nH]c3nn2c1` [Compound 58, 2-chloro-N-(1-(5-(6-ethoxy-1H-pyrazolo[3′,4′:3,4]pyrazolo[1,5-α]pyridin-4-yl)pyrazin-2-yl)-4-methylpiperidin-4-yl)-5-fluorobenzamide], the IC50 [1] was 5.6 nM.

Molecule `CCOc1cc(-c2ccc(N3CC4(CCCN4Cc4ccc(OC)nc4)C3)nc2)c2c3cn[nH]c3nn2c1` [Compound 188, 6-ethoxy-4-(6-(5-((6-methoxypyridin-3-yl)methyl)-2,5-diazaspiro[3.4]octan-2-yl)pyridin-3-yl)-1 H-pyrazolo[3′,4′:3,4]pyrazolo[1,5-α]pyridine] has an IC50 [1] of 16.9 nM.

In the case of `CCOc1cc(-c2ccc(N3CCC4(CCCN4Cc4ccc(OC)nc4)CC3)nc2)c2c3cn[nH]c3nn2c1` [Compound 207, 6-ethoxy-4-(6-(1-((6-methoxypyridin-3-yl)methylene)-1,8-diazaspiro[4.5]octan-8-yl)pyridin-3-yl) -1H-pyrazolo[3′,4′:3,4]pyrazolo[1,5-α]pyridine], the IC50 [1] is reported as 49 nM.

With `CCOc1cc(-c2ccc(N3C[C@@H]4[C@@H](CNC(=O)c5c(F)cccc5Cl)[C@@H]4C3)nc2)c2c3cn[nH]c3nn2c1` [Compound 183, 2-chloro-N-(((1R,5S,6s)-3-(5-(6-ethoxy-1H-pyrazolo[3′,4′:3,4]pyrazolo[1,5-α]pyridin-4-yl)pyridin-2-yl)-3-azabicyclo[3.1.0]hexan-6-yl)methyl)-6-fluorobenzamide] the IC50 [1] was 8 nM.

With `O=C(N[C@H]1CCN(c2ccc(-c3cc(OCCF)cn4nc5[nH]ncc5c34)cn2)C[C@H]1O)c1c(F)cccc1F` [Compound 267, N-((3R,4S)-1-(5-(6-(2-fluoroethoxy)-1H-pyrazolo[3′,4′:3,4]pyrazolo[1,5-α]pyridin-4-yl)pyridin-2-yl)-3-hydroxypiperidin-4-yl)-2,6-difluorobenzamide] the “inhibitory activity against RET G810R relative to that of selpercatinib (LOXO-292)” value was no less than 10 times and the IC50 [1] was 3 nM.

In the case of `CCOc1cc(-c2ccc(N3CC[C@H](NC(=O)c4cc(F)ccc4F)[C@H](O)C3)nc2)c2c3cn[nH]c3nn2c1` [Compound 273, N-((3R,4S)-1-(5-(6-ethoxy-1H-pyrazolo[3′,4′:3,4]pyrazolo[1,5-α]pyridin-4-yl)pyridin-2-yl)-3-hydroxypiperidin-4-yl)-2,5-difluorobenzamide], the “inhibitory activity against RET G810R relative to that of selpercatinib (LOXO-292)” value is reported as no less than 10 times and the IC50 [1] is reported as 1.8 nM.

For `O=C(N[C@H]1CCN(c2ccc(-c3cc(OCCF)cn4nc5[nH]ncc5c34)cn2)C[C@@H]1O)c1c(F)cccc1F` [Compound 295, N-((3S,4S)-1-(5-(6-(2-fluoroethoxy)-1H-pyrazolo[3′,4′:3,4]pyrazolo[1,5-α]pyridin-4-yl)pyridin-2-yl)-3-hydroxypiperidin-4-yl)-2,6-difluorobenzamide], the “inhibitory activity against RET G810R relative to that of selpercatinib (LOXO-292)” value was no less than 10 times and the IC50 [1] was 2.1 nM.

`COc1ccc(CN2C3CC2CN(c2ccc(-c4cc(OCC(=O)O)cn5nc6[nH]ncc6c45)cn2)C3)cn1` [Compound 240, 2-((4-(6-(6-((6-methoxypyridin-3-yl)methyl)-3,6-diazabicyclo[3.1.1]heptan-3-yl)pyridin-3-yl)-1 H-pyrazolo[3′,4′:3,4]pyrazolo[1,5-α]pyridin-6-yl)oxy)acetic acid] showed an IC50 of 4 nM.

With `CCOc1cc(-c2ccc(N3CCCC4(CCN(Cc5ccc(OC)nc5)CC4)C3)nc2)c2c3cn[nH]c3nn2c1` [Compound 219, 6-ethoxy-4-(6-(9-((6-methoxypyridin-3-yl)methylene)-2,9-diazaspiro[5.5]undecan-2-yl)pyridin-3-yl)-1H-pyrazolo[3′,4′:3,4]pyrazolo[1,5-α]pyridine] the IC50 [1] was 66.4 nM.

In the case of `CCOc1cc(-c2ccc(N3CC4CC(C3)N4Cc3ccc(OC)nc3)nc2)c2c3c(C#N)n[nH]c3nn2c1` [Compound 248, 3-cyano-6-ethoxy-4-(6-(6-((6-methoxypyridin-3-yl)methyl)-3,6-diazabicyclo[3.1.1]heptan-3-yl)pyridin-3-yl)-1H-pyrazolo[3′,4′:3,4]pyrazolo[1,5-α]pyridine], the IC50 [1] is reported as 15.5 nM.

With `CCOc1cc(-c2ccc(N3CCC(Oc4ccccn4)CC3)nc2)c2c3cn[nH]c3nn2c1` [Compound 103, 6-ethoxy-4-(6-(4-(pyridin-2-yloxy)piperidin-1-yl)pyridin-3-yl)-1H-pyrazolo[3′,4′:3,4]pyrazolo[1,5-α]pyridine] the IC50 [1] was 11.1 nM.

In the case of `CCOc1cc(-c2ccc(N3CCC(CN4CCN(CC)CC4)(NC(=O)c4cc(F)ccc4F)CC3)nc2)c2c3cn[nH]c3nn2c1` [Compound 17, N-(1-(5-(6-ethoxy-1H-pyrazolo[3′,4′:3,4]pyrazolo[1,5-α]pyridin-4-yl)pyridin-2-yl)-4-((4-ethylpiperazin-1-yl)methyl)piperidin-4-yl)-2,5-difluorobenzamide], the “inhibitory activity against RET G810R relative to that of selpercatinib (LOXO-292)” value is reported as no less than 10 times and the IC50 [1] is reported as 2.1 nM.

`CCOc1cc(-c2ccc(N3CC4(CCCN(C(=O)c5c(F)cccc5Cl)C4)C3)nc2)c2c3cn[nH]c3nn2c1` [Compound 193, N-(2-(5-(6-ethoxy-1H-pyrazolo[3′,4′:3,4]pyrazolo[1,5-α]pyridin-4-yl)pyridin-2-yl)-2,6-diazaspiro [3.5]nonan-6-yl)-2-chloro-6-fluorobenzamide] showed an IC50 [1] of 33.7 nM.

For `CCOc1cc(-c2ccc(N3CC[C@H](NC(=O)c4c(F)ccc(F)c4F)[C@H](O)C3)nc2)c2c3cn[nH]c3nn2c1` [Compound 274, N-((3R,4S)-1-(5-(6-ethoxy-1H-pyrazolo[3′,4′:3,4]pyrazolo[1,5-α]pyridin-4-yl)pyridin-2-yl)-3-hydroxypiperidin-4-yl)-2,3,6-trifluorobenzamide], the “inhibitory activity against RET G810R relative to that of selpercatinib (LOXO-292)” value was no less than 10 times and the IC50 [1] was 1.3 nM.

`CCOc1cc(-c2ccc(N3CCC4(CCN(C(=O)c5c(F)cccc5Cl)C4)CC3)nc2)c2c3cn[nH]c3nn2c1` [Compound 208, N-(8-(5-(6-ethoxy-1H-pyrazolo[3′,4′:3,4]pyrazolo[1,5-α]pyridin-4-yl)pyridin-2-yl)-2,8-diazaspiro [4.5]decan-2-yl)-2-chloro-6-fluorobenzamide] gave an IC50 [1] of 24.1 nM.

Work on `CCOc1cc(-c2cnc(N3CCC(C)(NC(=O)c4nc(C)ccc4Cl)CC3)cn2)c2c3cn[nH]c3nn2c1` [Compound 56] yielded an IC50 [1] of 23.6 nM.

For `COc1cc(-c2ccc(N3CC4CC(C3)N4Cc3ccc(OC)nc3)nc2)c2c3cn[nH]c3nn2c1` [Compound 235], the “inhibitory activity against RET G810R relative to that of selpercatinib (LOXO-292)” value was no less than 10 times and the IC50 [1] was 2.2 nM.

`CCOc1cc(-c2ccc(N3CCC(CO)(NC(=O)c4cc(F)ccc4F)CC3)nc2)c2c3cn[nH]c3nn2c1` [Compound 150, N-(1-(5-(6-ethoxy-1H-pyrazolo[3′,4′:3,4]pyrazolo[1,5-α]pyridin-4-yl)pyridin-2-yl)-4-(hydroxymethyl)piperidin-4-yl)-2,5-difluorobenzamide] gave an IC50 [1] of 4.4 nM.

`COC(=O)COc1cc(-c2ccc(N3CC4CC(C3)N4Cc3ccc(OC)nc3)nc2)c2c3cn[nH]c3nn2c1` [Compound 228, Methyl 2-((4-(6-(6-((6-methoxypyridin-3-yl)methylene)-3,6-diazabicyclo[3.1.1]heptan-3-yl)pyridin-3-yl)-1H-pyrazolo[3′,4′:3,4]pyrazolo[1,5-α]pyridin-6-yl)oxy)acetate] showed an IC50 [1] of 5.7 nM.

In the case of `CCOc1cc(-c2ccc(N3C[C@H]4CN(C(=O)c5c(F)cccc5Cl)C[C@H]4C3)nc2)c2c3cn[nH]c3nn2c1` [Compound 118, N-((3aR,6aS)-5-(5-(6-ethoxy-1H-pyrazolo[3′,4′:3,4]pyrazolo[1,5-α]pyridin-4-yl)pyridin-2-yl)hexahydropyrrolo[3,4-c]pyrrol-2(1H)-yl)-2-chloro-6-fluorobenzamide], the IC50 [1] is reported as 7.7 nM.

With `CCOc1cc(-c2ccc(N3CCC(Oc4ccc(C)nn4)CC3)nc2)c2c3cn[nH]c3nn2c1` [Compound 104, 6-ethoxy-4-(6-(4-((6-methylpyridazin-3-yl)oxy)piperidin-1-yl)pyridin-3-yl)-1H-pyrazolo[3′,4′:3,4]pyrazolo[1,5-α]pyridine] the IC50 [1] was 6.4 nM.

Work on `CCOc1cc(-c2ccc(N3C4CCC3CN(Cc3ccc(OC)nc3)C4)nc2)c2c3cn[nH]c3nn2c1` [Compound 158, 6-ethoxy-4-(6-((1R,5S)-3-((6-methoxypyridin-3-yl)methyl)-3,8-diazabicyclo[3.2.1]octan-3-yl)pyridin-8-yl)-1H-pyrazolo[3′,4′:3,4]pyrazolo[1,5-α]pyrazole] yielded an IC50 [1] of 18.7 nM.

In the case of `COc1ccc(CN2C3CC2CN(c2ccc(-c4cc(C(=O)O)cn5nc6[nH]ncc6c45)cn2)C3)cn1` [Compound 239, 4-(6-(6-((6-methoxypyridin-3-yl)methyl)-3,6-diazabicyclo[3.1.1]heptan-3-yl)pyridin-3-yl)-1H-py razolo[3′,4′:3,4]pyrazolo[1,5-α]pyridine-6-carboxylic acid], the IC50 [1] is reported as 33.7 nM.

Molecule `CCOc1cc(-c2ccc(N3CCC(S(=O)(=O)Cc4ccccc4)CC3)nc2)c2c3cn[nH]c3nn2c1` [Compound 34] has an IC50 [1] of 4.9 nM.
